Patent US20140228274A1, “Liquid Detergent Composition” (priority 2011, published 2014)

Assays:
[1] = biological target: T1, Savinase 16L (subtilisin) (Lederbergia lenta, UniProt P29600); experiment: Storage stability in liquid detergent: residual protease activity (hydrolysis of N,N-dimethylcasein at 40° C., pH 8.3); format: biochemical; conditions: for Residual protease activity, 4 weeks at 35° C. (% of initial activity): inhibitor dosage 'yes'
T1 construct: purchased Novozymes Savinase 16L
T1 sequence (P29600 1-269): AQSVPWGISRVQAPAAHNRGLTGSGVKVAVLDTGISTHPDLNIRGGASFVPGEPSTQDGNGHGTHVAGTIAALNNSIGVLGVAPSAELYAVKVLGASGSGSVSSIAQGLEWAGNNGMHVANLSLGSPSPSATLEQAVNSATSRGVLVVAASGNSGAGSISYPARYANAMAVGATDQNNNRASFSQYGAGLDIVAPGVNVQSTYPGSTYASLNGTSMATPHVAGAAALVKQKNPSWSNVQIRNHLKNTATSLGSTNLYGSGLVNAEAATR
Procedure: (§1) General experimental details: Detergents containing Savinase 16L and either X—B^1—B^0—H or X—B^1—NH—CHR—CHOH—SO3Na; or Savinase 16L; are placed in closed glasses at −18° C.; 35° C. and 40° C. Residual activities of protease and lipase are measured after different times using standard analytical methods (protease by hydrolysis of N,N-dimethylcasein at 40° C., pH 8.3 and lipase by hydrolysis of pNp-valerate at 40° C., pH 7.7). The inhibitor and protease may also be added individually to the detergent.
(§2) As an example of liquid detergents with a stabilized subtilisin formulation, the compositions described in Table 1 were made.
(§3) As another example of detergents with a stabilized subtilisin formulation, the compositions described in Table 3 were made.

Lipex 100L (lipase) = experiment: Storage stability in liquid detergent: residual lipase activity (hydrolysis of pNp-valerate at 40° C., pH 7.7); format: biochemical
Procedure: as §1, §2, §3

[2] = Detergent A, no Na formate, inhibitor 21 ppm (peptide aldehydes) or 26 ppm (hydrosulfite adduct) in detergent
[3] = Detergent B, 2% Na formate, inhibitor 21 ppm (peptide aldehydes) or 26 ppm (hydrosulfite adduct) in detergent
[4] = Detergent B, 2% Na formate alone, no inhibitor

Compound | Residual protease activity, 2 weeks at 40° C. (% of initial activity) [1, 2] | Residual protease activity, 2 weeks at 40° C. (% of initial activity) [1, 3] | Residual lipase activity, 2 weeks at 35° C. (% of initial activity) (Lipex 100L (lipase); [2]) | Residual lipase activity, 2 weeks at 35° C. (% of initial activity) (Lipex 100L (lipase); [3]) | Residual protease activity, 4 weeks at 35° C. (% of initial activity) ([1]; Detergent E (12% LAS, pH 8.4), no Na formate) | Residual protease activity, 4 weeks at 35° C. (% of initial activity) ([1]; Detergent F (12% LAS, pH 8.4), 2% Na formate) | Residual lipase activity, 2 weeks at 35° C. (% of initial activity) (Lipex 100L (lipase); Detergent E (12% LAS, pH 8.4), no Na formate, inhibitor dosage 'yes') | Residual lipase activity, 2 weeks at 35° C. (% of initial activity) (Lipex 100L (lipase); Detergent F (12% LAS, pH 8.4), 2% Na formate, inhibitor dosage 'yes') | Residual protease activity, 2 weeks at 40° C. (% of initial activity) [1, 4] | Residual lipase activity, 2 weeks at 35° C. (% of initial activity) (Lipex 100L (lipase); [4])
Cbz-VAL-H | 2% | 49% | 13% | 30% | – | – | – | – | – | –
Cbz-GAY-H | 5% | 71% | 16% | 32% | 43% | 88% | 14% | 27% | – | –
O=C[O-].[Na+] [Na formate, sodium formate] | – | – | – | – | – | – | – | – | 1% | 3%
